Usually EC50 stands for the concentration needed to bring the measured effect to its halfway point.

Chain of human APJ receptor (P35414 whole entry): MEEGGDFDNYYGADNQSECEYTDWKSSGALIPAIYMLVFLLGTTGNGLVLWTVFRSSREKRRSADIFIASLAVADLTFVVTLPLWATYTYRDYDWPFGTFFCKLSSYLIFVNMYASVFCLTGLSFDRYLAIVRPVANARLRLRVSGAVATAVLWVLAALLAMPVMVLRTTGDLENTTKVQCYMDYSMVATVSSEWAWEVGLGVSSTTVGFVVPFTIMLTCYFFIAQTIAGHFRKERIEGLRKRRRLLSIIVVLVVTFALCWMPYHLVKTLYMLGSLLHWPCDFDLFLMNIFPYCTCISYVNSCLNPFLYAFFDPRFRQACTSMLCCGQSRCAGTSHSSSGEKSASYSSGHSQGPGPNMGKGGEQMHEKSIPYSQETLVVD

For the first test, the target named is human APJ receptor (Homo sapiens (Human), UniProt P35414). Nature of the test: Intracellular cAMP accumulation assay (APJ hcAMP, HTRF). Type of test: cell-based. The note with it: HEK293 cells stably expressing human APJ receptor; inhibition of forskolin-mediated cAMP production; read-out: Human APJ cAMP EC50 Potency range. In short, it runs like this:
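HEK293 cells stably expressing human APJ, 5,000 per well, incubated 30 min at rt with compound, […] and 2 μM forskolin. cAMP measured by HTRF against a cAMP standard curve as inhibition of forskolin-driven production. EC50 from variable-slope sigmoidal fit.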
As to `CC[C@@H](c1cccc(C#N)c1)n1c(COC(C)C)nc(=O)c(S(=O)(=O)c2ccc(-c3ccncc3C)cc2)c1O` [Example 383, 3-[(1S)-1-{6-hydroxy-5-[4-(3-methylpyridin-4-yl)benzenesulfonyl]-4-oxo-2-[(propan-2-yloxy)methyl]-1,4-dihydropyrimidin-1-yl}propyl]benzonitrile], the half-maximal effective concentration (EC50) was in the range of 0.01 to 10 nM.

On to `CCOCc1nc(=O)c(S(=O)(=O)c2ccc(-c3cccnc3C)cc2)c(O)n1[C@@H](CC)c1cccc(C#N)c1` [Example 435, 3-[(1S)-1-[2-(ethoxymethyl)-6-hydroxy-5-[4-(2-methylpyridin-3-yl)benzenesulfonyl]-4-oxo-1,4-dihydropyrimidin-1-yl]propyl]benzonitrile], for which the 50% effective concentration (EC50) was 0.01 to 10 nM.

Consider `COC[C@@H](c1cc(F)cc(F)c1)n1c(COC(C)C)nc(=O)c(S(=O)(=O)c2ccc(-c3cccn(C)c3=O)cc2)c1O` [Example 408, 1-[(1R)-1-(3,5-difluorophenyl)-2-methoxyethyl]-6-hydroxy-5-[4-(1-methyl-2-oxo-1,2-dihydropyridin-3-yl)benzenesulfonyl]-2-[(propan-2-yloxy)methyl]-1,4-dihydropyrimidin-4-one], for which the concentration for a half-maximal effect (EC50) is 0.01 to 10 nM.

As for `CC(C)OCc1nc(=O)c(S(=O)(=O)c2ccc(-c3ccccc3C(N)=O)cc2)c(O)n1[C@H](c1cccc(C#N)c1)C1CC1` [Example 418, 4′-({1-[(S)-(3-cyanophenyl)(cyclopropyl)methyl]-6-hydroxy-4-oxo-2-[(propan-2-yloxy)methyl]-1,4-dihydropyrimidin-5-yl}sulfonyl)-[1,1′-biphenyl]-2-carboxamide], the EC50 lay within 0.01 to 10 nM.

In the case of `CC[C@@H](c1cccc(C#N)c1)n1c(COC(C)C)nc(=O)c(S(=O)(=O)c2ccc(-c3ccnc(F)c3C)cc2)c1O` [Example 381, 3-[(1S)-1-{5-[4-(2-fluoro-3-methylpyridin-4-yl)benzenesulfonyl]-6-hydroxy-4-oxo-2-[(propan-2-yloxy)methyl]-1,4-dihydropyrimidin-1-yl}propyl]benzonitrile], the EC50 was 0.01 to 10 nM.

For the compound `CCCCc1nc(=O)c(S(=O)(=O)c2ccc(-c3ccccc3C(=O)N3CCOCC3)cc2)c(O)n1[C@@H](CC)c1cccc(C#N)c1` [Example 489, 3-[(1S)-1-(2-butyl-6-hydroxy-5-{[2′-(morpholine-4-carbonyl)-[1,1′-biphenyl]-4-yl)sulfonyl}-4-oxo-1,4-dihydropyrimidin-1-yl)propyl]benzonitrile], the concentration for a half-maximal effect (EC50) is 0.01 to 10 nM.

Staying with this test, now noted: human APJ, cAMP accumulation; read-out: Human APJ cAMP EC50 Potency range.
With `CCCCc1nc(O)c(S(=O)(=O)c2ccc(Br)cc2)c(=O)n1[C@@H](CC)c1cccc(C#N)c1` [Example 223, 3-[(1S)-1-[5-(4-bromobenzenesulfonyl)-2-butyl-4-hydroxy-6-oxo-1,6-dihydropyrimidin-1-yl]propyl]benzonitrile], the concentration giving a half-maximal response (EC50) lay within 0.01 to 10 nM.

In the case of `CCOCc1nc(=O)c(S(=O)(=O)c2ccc(-c3ccc(F)nc3)cc2)c(O)n1[C@@H](COC)c1ccccc1` [Example 317, 2-(ethoxymethyl)-5-[4 (6-fluoropyridin-3-yl)benzenesulfonyl]-6-hydroxy-1-[(1R)-2-methoxy-1-phenylethyl]-1,4-dihydropyrimidin-4-one], the half-maximal effective concentration (EC50) fell in the range of 10 to 100 nM.

As to `CCCCc1nc(=O)c(S(=O)(=O)c2ccc(-c3ccncc3C)cc2)c(O)n1[C@@H](CC)c1ccc(C#N)cc1` [Example 265, 4-[(1S)-1-{2-butyl-6-hydroxy-5-[4-(3-methylpyridin-4-yl)benzenesulfonyl]-4-oxo-1,4-dihydropyrimidin-1-yl}propyl]benzonitrile], the half-maximal effective concentration (EC50) lay in the range of 0.01 to 10 nM.

The test is the same for the next values; noted with them: human APJ, intracellular cAMP accumulation; read-out: Human APJ cAMP EC50 Potency range.
Regarding `CCCCc1nc(=O)c(S(=O)(=O)c2ccc(-c3cccnc3C)cc2)c(O)n1-c1c(OC)cccc1OC` [Example 60, 2-butyl-1-(2,6-dimethoxyphenyl)-6-hydroxy-5-[4-(2-methylpyridin-3-yl)benzenesulfonyl]-1,4-dihydropyrimidin-4-one], the EC50 was in the range of 0.01 to 10 nM.

Take `CCCCc1nc(=O)c(S(=O)(=O)c2ccc(-c3cccnc3C)cc2)c(O)n1[C@@H](CC)c1cccc(F)c1` [Example 213, 2-butyl-1-[(1S)-1-(3-fluorophenyl)propyl]-6-hydroxy-5-[4-(2-methylpyridin-3-yl)benzenesulfonyl]-1,4-dihydropyrimidin-4-one]: the EC50 lay in the range of 0.01 to 10 nM.

On to `COc1cccc(OC)c1-n1c(CCC(C)C)nc(=O)c(S(=O)(=O)c2cccc(-c3cn(C)nc3C(F)(F)F)c2)c1O` [Example 20, 1-(2,6-dimethoxyphenyl)-6-hydroxy-5-{3-[1-methyl-3-(trifluoromethyl)-1H-pyrazol-4-yl]benzenesulfonyl}-2-(3-methylbutyl)-1,4-dihydropyrimidin-4-one], for which the EC50 was 0.01 to 10 nM.

For the compound `CCCCc1nc(=O)c(S(=O)(=O)c2ccc(-c3ccnc(NC(=O)C4CC4)c3)cc2)c(O)n1-c1c(OC)cccc1OC` [Example 51, N-[4-(4-{[2-butyl-1-(2,6-dimethoxyphenyl)-6-hydroxy-4-oxo-1,4-dihydropyrimidin-5-yl]sulfonyl}phenyl)pyri-din-2-yl]cyclopropane-carboxamide], the EC50 lay in the range of 0.01 to 10 nM.

On to `CCCCc1nc(=O)c(S(=O)(=O)c2ccc(-c3ccccc3C#N)cc2)c(O)n1-c1c(OC)cccc1OC` [Example 46, 2-(4-{[2-butyl-1-(2,6-dimethoxyphenyl)-6-hydroxy-4-oxo-1,4-dihydropyrimidin-5-yl]sulfonyl}phenyl) benzonitrile], for which the EC50 was 0.01 to 10 nM.

Take `CCOCc1nc(=O)c(S(=O)(=O)c2ccc(C3CC3)cc2)c(O)n1-c1c(CC)cccc1CC` [Example 88, 5-(4-cyclopropylbenzene-sulfonyl)-1-(2,6-diethylphenyl)-2-(ethoxymethyl)-6-hydroxy-1,4-dihydropyrimidin-4-one]: the EC50 lay within 0.01 to 10 nM.

As to `CCCCc1nc(=O)c(S(=O)(=O)c2ccc(C(=O)NC)cc2)c(O)n1-c1c(OC)cccc1OC` [Example 92, 4-{[2-butyl-1-(2,6-dimethoxyphenyl)-6-hydroxy-4-oxo-1,4-dihydropyrimidin-5-yl]sulfonyl}-N-methylbenzamide], the EC50 fell in the range of 0.01 to 10 nM.

As for `CCCCc1nc(=O)c(S(=O)(=O)c2ccc(C3CC3)cc2)c(O)n1-c1c(CC)cccc1CC` [Example 87, 2-butyl-5-(4-cyclopropylbenzene-sulfonyl)-1-(2,6-diethylphenyl)-6-hydroxy-1,4-dihydropyrimidin-4-one], the EC50 fell in the range of 0.01 to 10 nM.

Take `COc1cccc(OC)c1-n1c(C2CCCC2)nc(=O)c(S(=O)(=O)c2ccc(C3CC3)cc2)c1O` [Example 86, 2-cyclopentyl-5-(4-cyclopropylbenzene-sulfonyl)-1-(2,6-dimethoxyphenyl)-6-hydroxy-1,4-dihydropyrimidin-4-one]: the EC50 lay in the range of 0.01 to 10 nM.

For `CCCCc1nc(=O)c(S(=O)(=O)c2ccc(-c3ccc(F)nc3C)cc2)c(O)n1[C@H]1CCc2ccccc21` [Example 171, 2-butyl-1-[(1S)-2,3-dihydro-1H-inden-1-yl]-5-[4-(6-fluoro-2-methylpyridin-3-yl)benzenesulfonyl]-6-hydroxy-1,4-dihydropyrimidin-4-one], the EC50 lay in the range of 0.01 to 10 nM.

Take `CCCCc1nc(=O)c(S(=O)(=O)c2ccc(C(=O)NC3CC3)cc2)c(O)n1-c1c(OC)cccc1OC` [Example 91, 4-{[2-butyl-1-(2,6-dimethoxyphenyl)-6-hydroxy-4-oxo-1,4-dihydropyrimidin-5-yl]suffonyl}-N-cyclopropylbenzamide]: the EC50 was in the range of 0.01 to 10 nM.
